# The source made the active and inactive calls. How the calls were made is not given here.
# Tested on: rodent carcinogenicity bioassays, tumor incidence
# Assay: CCRIS carcinogenicity studies
# How it was run: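 NCI-built, expert-reviewed records of carcinogenicity and related test outcomes (mutagenicity, tumor promotion/inhibition) compiled from published and report sources, historical span 1985-2011, not updated.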
smiles,measurement,setting,value
Oc1c(Cl)c(Cl)c(Cl)c(Cl)c1Cl,carcinogen call,"Species: MOUSE, Strain/Sex: B6C3F1/FEMALE, Route: ORAL, Dose: 0, 100, 200, 600 PPM DOWCIDE EC-7 IN FEED FOR 103 WK (STUDY DURATION: 103 WK), Dose: 0, 100, 200, 600 PPM DOWCIDE EC-7 IN FEED FOR 103 WK (STUDY DURATION: 103 WK), Tumor Site: Type of Lesion: ADRENAL GLAND/MEDULLA: PHEOCHROMOCYTOMA: ADRENAL GLAND/MEDULLA: PHEOCHROMOCYTOMA OR MALIGNANT PHEOCHROMOCYTOMA, CIRCULAT",active; positive
same,carcinogen call,"Species: MOUSE, Strain/Sex: B6C3F1/FEMALE, Route: ORAL, Dose: 0, 100, 200 PPM TECHNICAL GRADE PENTACHLOROPHENOL IN FEED FOR 103 WK (STUDY DURATION: 103 WK), Dose: 0, 100, 200 PPM TECHNICAL GRADE PENTACHLOROPHENOL IN FEED FOR 103 WK (STUDY DURATION: 103 WK), Tumor Site: Type of Lesion: LIVER: HEPATOCELLULAR ADENOMA OR CARCINOMA, CIRCULATORY SYSTEM: HEMANGIOSARCOMA",active; positive
same,carcinogen call,"Species: MOUSE, Strain/Sex: B6C3F1/MALE, Route: ORAL, Dose: 0, 100, 200, 600 PPM DOWCIDE EC-7 IN FEED FOR 103 WK (STUDY DURATION: 103 WK), Dose: 0, 100, 200, 600 PPM DOWCIDE EC-7 IN FEED FOR 103 WK (STUDY DURATION: 103 WK), Tumor Site: Type of Lesion: ADRENAL GLAND/MEDULLA: PHEOCHROMOCYTOMA, ADRENAL GLAND/MEDULLA: PHEOCHROMOCYTOMA OR MALIGNANT PHEOCHROMOCYTOMA, LIVER: H, Tumor Site: Type of Lesion: ADRENAL GLAND/MEDULLA: PHEOCHROMOCYTOMA, ADRENAL GLAND/MEDULLA: PHEOCHROMOCYTOMA OR MALIGNANT PHEOCHROMOCYTOMA, LIVER: H",active; positive
same,carcinogen call,"Species: MOUSE, Strain/Sex: B6C3F1/MALE, Route: ORAL, Dose: 0, 100, 200 PPM TECHNICAL GRADE PENTACHLOROPHENOL IN FEED FOR 103 WK (STUDY DURATION: 103 WK), Dose: 0, 100, 200 PPM TECHNICAL GRADE PENTACHLOROPHENOL IN FEED FOR 103 WK (STUDY DURATION: 103 WK), Tumor Site: Type of Lesion: ADRENAL GLAND/MEDULLA: PHEOCHROMOCYTOMA, LIVER: HEPATOCELLULAR ADENOMA, LIVER: HEPATOCELLULAR ADENOMA OR CARCINOMA, Tumor Site: Type of Lesion: ADRENAL GLAND/MEDULLA: PHEOCHROMOCYTOMA, LIVER: HEPATOCELLULAR ADENOMA, LIVER: HEPATOCELLULAR ADENOMA OR CARCINOMA",active; positive
same,carcinogen call,"Species: MOUSE, Strain/Sex: B6C3F1/MALE, Route: ORAL, Dose: 0, 1200 PPM IN DIET FOR 13 WK (STUDY DURATION: 42 WK)",inactive; negative
same,carcinogen call,"Species: RAT, Strain/Sex: F344/N/FEMALE, Route: ORAL, Dose: 0, 200, 400, 600 PPM IN DIET FOR 105 WK (STUDY DURATION: 105 WK), Dose: 0, 200, 400, 600 PPM IN DIET FOR 105 WK (STUDY DURATION: 105 WK)",inactive; negative
same,carcinogen call,"Species: RAT, Strain/Sex: F344/N/FEMALE, Route: ORAL, Dose: 0, 1000 PPM IN DIET FOR 52 WK (STUDY DURATION: 105 WK)",inactive; negative
same,carcinogen call,"Species: RAT, Strain/Sex: F344/N/MALE, Route: ORAL, Dose: 0, 200, 400, 600 PPM IN DIET FOR 105 WK (STUDY DURATION: 105 WK), Dose: 0, 200, 400, 600 PPM IN DIET FOR 105 WK (STUDY DURATION: 105 WK)",inactive; negative
same,carcinogen call,"Species: RAT, Strain/Sex: F344/N/MALE, Route: ORAL, Dose: 0, 1000 PPM IN DIET FOR 52 WK (STUDY DURATION: 105 WK), Tumor Site: Type of Lesion: SKIN: KERATOACANTHOMA",active; positive
Cc1ccc([N+](=O)[O-])cc1N,carcinogen call,"Species: MOUSE, Strain/Sex: B6C3F1/FEMALE, Route: ORAL, Dose: 0, 0.12, 0.23% OF DIET, TWA, Dose: 0, 0.12, 0.23% OF DIET, TWA, Tumor Site: Type of Lesion: LIVER: HEPATOCELLULAR CARCINOMA, BLOOD VESSELS: HEMANGIOSARCOMA",active; positive
same,carcinogen call,"Species: MOUSE, Strain/Sex: B6C3F1/MALE, Route: ORAL, Dose: 0, 0.12, 0.23% OF DIET, TWA, Dose: 0, 0.12, 0.23% OF DIET, TWA, Tumor Site: Type of Lesion: LIVER: HEPATOCELLULAR CARCINOMA, BLOOD VESSELS: HEMANGIOSARCOMA OR HEMANGIOMA",active; positive
same,carcinogen call,"Species: RAT, Strain/Sex: F344/FEMALE, Route: ORAL, Dose: 0, 0.005, 0.01% OF DIET, TWA, Dose: 0, 0.005, 0.01% OF DIET, TWA",inactive; negative
same,carcinogen call,"Species: RAT, Strain/Sex: F344/MALE, Route: ORAL, Dose: 0, 0.005, 0.01% OF DIET, TWA, Dose: 0, 0.005, 0.01% OF DIET, TWA",inactive; negative
COCCl,carcinogen call,"Species: MOUSE, Strain/Sex: ICR/FEMALE, Route: SUBCUTANEOUS, Dose: 300 UG IN 0.05 ML NUJOL 1/WK FOR 685 D, Tumor Site: Type of Lesion: INJECTION SITE: SARCOMA",active; positive
Nc1c(Cl)cc(Cl)cc1Cl,carcinogen call,"Species: MOUSE, Strain/Sex: CD-1/MALE, Route: ORAL, Dose: 6000, 12000 PPM IN DIET, Tumor Site: Type of Lesion: BLOOD VESSELS",active; positive
Clc1ccc2c(c1)Oc1ccc(Cl)cc1O2,carcinogen call,"Species: MOUSE, Strain/Sex: B6C3F1/FEMALE, Route: ORAL, Dose: 0, 5,000, 10,000 PPM IN DIET FOR 90 WK (STUDY DURATION: 91-98 WK), Dose: 0, 5,000, 10,000 PPM IN DIET FOR 90 WK (STUDY DURATION: 91-98 WK)",inactive; negative
same,carcinogen call,"Species: MOUSE, Strain/Sex: B6C3F1/MALE, Route: ORAL, Dose: 0, 5000, 10000 PPM IN DIET FOR 90 WK (STUDY DURATION: 92-101 WK), Dose: 0, 5000, 10000 PPM IN DIET FOR 90 WK (STUDY DURATION: 92-101 WK), Tumor Site: Type of Lesion: LIVER: HEPTOCELLULAR ADENOMA OR CARCINOMA, HEMATOPOIETIC SYSTEM: LYMPHOMA OR LEUKEMIA, SPLEEN: HEMANGIOMA OR HEMANGIOSAR, Tumor Site: Type of Lesion: LIVER: HEPTOCELLULAR ADENOMA OR CARCINOMA, HEMATOPOIETIC SYSTEM: LYMPHOMA OR LEUKEMIA, SPLEEN: HEMANGIOMA OR HEMANGIOSAR",equivocal
same,carcinogen call,"Species: RAT, Strain/Sex: OSBORNE-MENDEL/FEMALE, Route: ORAL, Dose: 0, 5,000, 10,000 PPM IN DIET FOR 110 WK (STUDY DURATION: 110-117 WK), Dose: 0, 5,000, 10,000 PPM IN DIET FOR 110 WK (STUDY DURATION: 110-117 WK)",inactive; negative
same,carcinogen call,"Species: RAT, Strain/Sex: OSBORNE-MENDEL/MALE, Route: ORAL, Dose: 0, 5,000, 10,000 PPM IN DIET FOR 110 WK (STUDY DURATION: 110-112 WK), Dose: 0, 5,000, 10,000 PPM IN DIET FOR 110 WK (STUDY DURATION: 110-112 WK)",inactive; negative
CC1(C)C(C(=O)OC(C#N)c2cccc(Oc3ccccc3)c2)C1(C)C (stereo not given),carcinogen call,"Species: Mouse, Strain/Sex: CD-1/Female (52/Group), Dose: 0, 40, 150, 600 ppm of 91.4 - 92.5 % fenpropathrin in diet for 2 yr, study duration 2 yr, Dose: 0, 40, 150, 600 ppm of 91.4 - 92.5 % fenpropathrin in diet for 2 yr, study duration 2 yr",inactive; negative
same,carcinogen call,"Species: Mouse, Strain/Sex: CD-1/Male (52/Group), Dose: 0, 40, 150, 600 ppm of 91.4 - 92.5 % fenpropathrin in diet for 2 yr, study duration 2 yr, Dose: 0, 40, 150, 600 ppm of 91.4 - 92.5 % fenpropathrin in diet for 2 yr, study duration 2 yr",inactive; negative
same,carcinogen call,"Species: Rat, Strain/Sex: CD/Female (50/Group), Route: Oral, Dose: 0, 50, 150, 450 ppm of 91.4-92.5% fenpropathrin in diet for >52 wk, study duration up to 2 yr, Dose: 0, 50, 150, 450 ppm of 91.4-92.5% fenpropathrin in diet for >52 wk, study duration up to 2 yr",inactive; negative
same,carcinogen call,"Species: Rat, Strain/Sex: CD/Male (50/Group), Route: Oral, Dose: 0, 50, 150, 450 ppm of 91.4-92.5% fenpropathrin in diet for >52 wk, study duration up to 2 yr, Dose: 0, 50, 150, 450 ppm of 91.4-92.5% fenpropathrin in diet for >52 wk, study duration up to 2 yr",inactive; negative
O=CN(O)c1ccc(/C=C/c2ccccc2)cc1,carcinogen call,"Species: RAT, Strain/Sex: STRAIN-CD/FEMALE, Route: INTRAPERITONEAL, Dose: 0, 10 UMOL/KG BW 2/WK FOR 6 WK (STUDY DURATION: 62 WK), Tumor Site: Type of Lesion: LIVER: NEOPLASTIC NODULE, MAMMARY GLAND: TUMOR",active; positive
same,carcinogen call,"Species: RAT, Strain/Sex: STRAIN-CD/MALE, Route: INTRAPERITONEAL, Dose: 0, 10 UMOL/KG BW 2/WK FOR 6 WK (STUDY DURATION: 62 WK), Tumor Site: Type of Lesion: TESTICLE: MESOTHELIOMA, PANCREAS(ACINUS): ADENOMA",active; positive

# Reference: PubChem BioAssay AID1259411 (Chemical Carcinogenesis Research Information System (CCRIS), 2018)
